# In patent US20070286822A1, “Compounds for the Treatment of Periodontal Disease” (ANACOR PHARMACEUTICALS INC., priority 2006, published 2007):
# Legend:
# TNF-α = experiment: Pro-inflammatory cytokines: THP-1 cells, LPS, TNF-α; type: cell-based; conditions: Homo sapiens, 24 hr, read-out: TNF-α (anti-inflammatory data, pro-inflammatory cytokine)
# Procedure: (§1) Anti-inflammatory data for 3-hydroxypyridine-2-carbonyloxy-bis(3-chloro-4-methylphenyl)-borane
# (§2) Pro-inflammatory cytokines: THP-1 cells, LPS@ […], 24 hr
# IL-1β = experiment: Pro-inflammatory cytokines: THP-1 cells, LPS, IL-1β; type: cell-based; conditions: Homo sapiens, 24 hr, read-out: IL-1β (anti-inflammatory data, pro-inflammatory cytokine)
# Procedure: as §1, §2
# IL-6 = experiment: Pro-inflammatory cytokines: THP-1 cells, LPS, IL-6; type: cell-based; conditions: Homo sapiens, 24 hr, read-out: IL-6 (anti-inflammatory data, pro-inflammatory cytokine)
# Procedure: as §1, §2
# IL-8 = experiment: Pro-inflammatory cytokines: THP-1 cells, LPS, IL-8; type: cell-based; conditions: Homo sapiens, 24 hr, read-out: IL-8 (anti-inflammatory data, pro-inflammatory cytokine)
# Procedure: as §1, §2
# IFN-g = experiment: TH1 cytokines: PBMC, PHA, IFN-g; type: cell-based; conditions: 24 h, read-out: IFN-g (anti-inflammatory data, TH1 cytokine)
# Procedure: as §1
# (§3) TH1 cytokines: PBMC, PHA@ […], 24 h
# IL-2 = experiment: TH1 cytokines: PBMC, PHA, IL-2; type: cell-based; conditions: 24 h, read-out: IL-2 (anti-inflammatory data, TH1 cytokine)
# Procedure: as §1, §3
# IL-4 = experiment: TH2 cytokines: PBMC, PHA, IL-4; type: cell-based; conditions: 24 h, read-out: IL-4 (anti-inflammatory data, TH2 cytokine)
# Procedure: as §1
# (§4) TH2 cytokines: PBMC, PHA@ […], 24 h
# IL-5 = experiment: TH2 cytokines: PBMC, PHA, IL-5; type: cell-based; conditions: 24 h, read-out: IL-5 (anti-inflammatory data, TH2 cytokine)
# Procedure: as §1, §4
# IL-10 = experiment: TH2 cytokines: PBMC, PHA, IL-10; type: cell-based; conditions: 24 h, read-out: IL-10 (anti-inflammatory data, TH2 cytokine)
# Procedure: as §1, §4
# IL-13 = experiment: TH2 cytokines: PBMC, PHA, IL-13; type: cell-based; conditions: 24 h, read-out: IL-13 (anti-inflammatory data, TH2 cytokine)
# Procedure: as §1, §4
# IL-3 = experiment: Regulatory cytokine: PBMC, PHA, IL-3; type: cell-based; conditions: 24 h, read-out: IL-3 (anti-inflammatory data, regulatory cytokine)
# Procedure: as §1
# Regulatory cytokine: PBMC, PHA@ […], 24 h
SMILES,melting point,further results
Cc1ccc(B(OC(=O)c2ncccc2O)c2ccc(C)c(Cl)c2)cc1Cl [3-hydroxypyridine-2-carbonyloxy-bis(3-chloro-4-methylphenyl)-borane],,IC50 (TNF-α): 2.7 µM; IC50 (IL-1β): 1 µM; IC50 (IL-6): 5.3 µM; IC50 (IL-8): 9.6 µM; IC50 (IFN-g): > 25 µM; IC50 (IL-2): > 25 µM; IC50 (IL-4): > 25 µM; IC50 (IL-5): 9.3 µM; IC50 (IL-10): 14.5 µM; IC50 (IL-13): > 10 µM; IC50 (IL-3): > 10 µM
"Fc1ccc2c(c1)COB2C=Cc1ccccc1 [10b, 1,3-Dihydro-5-fluoro-1-styryl-2,1-benzoxaborole]",84 to 86 °C,
"OB1OCc2ccc(Sc3ccc(C(F)(F)F)cc3)cc21 [C92, 6-(4-(trifluoromethyl)phenylthio)benzo[c][1,2]oxaborol-1(3H)-ol]",111 to 113 °C,
OCc1cc2c(cc1Br)COB2O [C59],> 257 °C,
"CCOC(=O)COc1ccc2c(c1)COB2O [C41, Ethyl 2-(1-hydroxy-1,3-dihydrobenzo[c][1,2]oxaborol-5-yloxy)acetate]",134 to 137 °C,
"OCc1cccc2c1B(O)OC2 [C64, 7-(hydroxymethyl)benzo[c][1,2]oxaborol-1(3H)-ol]",241 to 250 °C,
"COc1ccc(Sc2ccc3c(c2)B(O)OC3)cc1 [C32, 6-(4-methoxyphenylthio)benzo[c][1,2]oxaborol-1(3H)-ol]",95 to 100 °C,
"Cc1cscc1B1OCc2cc(F)ccc21 [compound 14, 1,3-Dihydro-5-fluoro-1-(4-methylthiophen-3-yl)-2,1-benzoxaborole]",51 to 53 °C,
"CN(C)c1ccc2c(c1)B(O)OC2 [C51, 6-(dimethylamino)benzo[c][1,2]oxaborol-1(3H)-ol]",120 to 123 °C,
"O=S(=O)(c1ccccc1)N(c1ccc2c(c1)COB2O)S(=O)(=O)c1ccccc1 [C91, N-(1-hydroxy-1,3-dihydrobenzo[c][1,2]oxaborol-5-yl)-N-(phenylsulfonyl)benzenesulfonamide]",142 to 152 °C,
"COc1ccc2c(c1)COB2O [C7, 5-methoxybenzo[c][1,2]oxaborol-1(3H)-ol]",102 to 104 °C,
"C(=Cc1ccccc1)B1OCc2ccccc21 [10a, 1,3-Dihydro-1-styryl-2,1-benzoxaborole]",57 to 59 °C,
"Nc1cc2c(cc1F)COB2O [C70, 6-amino-5-fluorobenzo[c][1,2]oxaborol-1(3H)-ol]",142 to 145 °C,
"Fc1ccc2c(c1)COB2c1cccnc1 [compound 15, 3-(1,3-Dihydro-5-fluoro-2,1-benzoxaborol-1-yl)pyridine]",210 to 212 °C,
"COc1ccc2c(c1)c(SCCC#N)cn2-c1ccc2c(c1)B(O)OC2 [C73, 3-(1-(1-hydroxy-1,3-dihydrobenzo[c][1,2]oxaborol-6-yl)-5-methoxy-1H-indol-3-ylthio)propanenitrile]",149 to 154 °C,

# More lines, main results first:
melting point,SMILES,further results
90 to 99 °C,"Fc1ccc2c(c1)COB2c1ccccc1 [9b, 1,3-Dihydro-5-fluoro-1-phenyl-2,1-benzoxaborole]",
175 to 184 °C,"O=S(=O)(Nc1ccc2c(c1)B(O)OC2)c1ccccc1 [C62, N-(1-hydroxy-1,3-dihydrobenzo[c][1,2]oxaborol-6-yl)benzenesulfonamide]",
99 to 104 °C,"OB1OCc2ccc(Sc3cccs3)cc21 [C43, 6-(thiophen-2-ylthio)benzo[c][1,2]oxaborol-1(3H)-ol]",
146 to 149 °C,"N#Cc1cccc(Oc2ccc3c(c2)B(O)OC3)c1 [C19, 3-(1-hydroxy-1,3-dihydrobenzo[c][1,2]oxaborol-6-yloxy)benzonitrile]",
95 to 99 °C,"OB1OCc2ccc(Oc3ccccc3)cc21 [C21, 6-phenoxybenzo[c][1,2]oxaborol-1(3H)-ol]",
157 to 161 °C,"OB1OCc2ccc(Sc3ccc(Cl)cc3)cc21 [C88, 6-(4-chlorophenylthio)benzo[c][1,2]oxaborol-1(3H)-ol]",
157 to 163 °C,"O=S(=O)(c1ccc(Cl)cc1)c1ccc2c(c1)B(O)OC2 [C90, 6-(4-chlorophenylsulfonyl)benzo[c][1,2]oxaborol-1(3H)-ol]",
159 to 161 °C,"OB1OCc2ccc(N3CCN(c4ccccc4)CC3)cc21 [C53, 6-(4-phenylpiperazin-1-yl)benzo[c][1,2]oxaborol-1(3H)-ol]",
135 to 138 °C,"OB1OCc2ccc(Sc3ccc(F)cc3)cc21 [C44, 6-(4-fluorophenylthio)benzo[c][1,2]oxaborol-1(3H)-ol]",
135 to 140 °C,"OB1OCc2ccc(-n3ccc4ccccc43)cc21 [C55, 6-(1H-indol-1-yl)benzo[c][1,2]oxaborol-1(3H)-ol]",
154 to 161 °C,"[O-][S+](c1ccc(Cl)cc1)c1ccc2c(c1)B(O)OC2 (stereo not shown) [C89, 6-(4-chlorophenylsulfinyl)benzo[c][1,2]oxaborol-1(3H)-ol]",
176 to 185 °C,"CC(=O)Nc1ccc2c(c1)B(O)OC2 [C63, N-(1-hydroxy-1,3-dihydrobenzo[c][1,2]oxaborol-6-yl)acetamide]",
186 to 193 °C,"O=C(Nc1ccc2c(c1)B(O)OC2)c1ccccc1 [C52, N-(1-hydroxy-1,3-dihydrobenzo[c][1,2]oxaborol-6-yl)benzamide]",
135 to 141 °C,"N#CCCSc1cn(-c2ccc3c(c2)B(O)OC3)c2ccccc12 [C67, 3-(1-(1-hydroxy-1,3-dihydrobenzo[c][1,2]oxaborol-6-yl)-1H-indol-3-ylthio)propanenitrile]",
115 to 123 °C,"OB1OCc2ccc(N(Cc3ccccc3)Cc3ccccc3)cc21 [C78, 6-(dibenzylamino)benzo[c][1,2]oxaborol-1(3H)-ol]",
